Results taken from BindingDB's records for doi:10.1016/j.bmcl.2004.02.022 (Pfizer, 2004).

Experiment: Inhibition of CCL3 induced chemotaxis in human T lymphocytes

| IC50 [nM] | SMILES |
| --- | --- |
| 740 | CC(C)(F)CCC(C[C@H](O)[C@H](Cc1ccccc1)NC(=O)c1cnc2ccccc2n1)C(=O)N1CCCC1 (stereo partly drawn) [Quinoxaline-2-carboxylic acid [(1S,2S)-1-benzyl-7-fluoro-2-hydroxy-7-methyl-4-(pyrrolidine-1-carbonyl)-octyl]-amide] |
| 12500 | NC(=O)C(C[C@H](O)[C@H](Cc1ccccc1)NC(=O)c1cnc2ccccc2n1)C1CCOCC1 (stereo partly drawn) [Quinoxaline-2-carboxylic acid [(1S,2S)-1-benzyl-4-carbamoyl-2-hydroxy-4-(tetrahydro-pyran-4-yl)-butyl]-amide] |
| 1180 | CC(C)(O)CC[C@H](C[C@H](O)[C@H](Cc1ccccc1)NC(=O)c1cnc2ccccc2n1)C(N)=O [Quinoxaline-2-carboxylic acid ((1S,2S,4R)-1-benzyl-4-carbamoyl-2,7-dihydroxy-7-methyl-octyl)-amide] |
| 130 | CCNC(=O)C(CCC(C)(C)F)C[C@H](O)[C@H](Cc1ccccc1)NC(=O)c1cnc2ccccc2n1 (stereo partly drawn) [Quinoxaline-2-carboxylic acid ((1S,2S)-1-benzyl-4-ethylcarbamoyl-7-fluoro-2-hydroxy-7-methyl-octyl)-amide] |
| 5 | NC(=O)C(C[C@H](O)[C@H](Cc1ccccc1)NC(=O)c1cnc2ccccc2n1)C1CCCCC1 (stereo partly drawn) [Quinoxaline-2-carboxylic acid ((1S,2S)-1-benzyl-4-carbamoyl-4-cyclohexyl-2-hydroxy-butyl)-amide] |
| 440 | CC(C)(F)CCC(C[C@H](O)[C@H](Cc1ccccc1)NC(=O)c1cnc2ccccc2n1)C(=O)NCc1ccccc1 (stereo partly drawn) [Quinoxaline-2-carboxylic acid ((1S,2S)-1-benzyl-4-benzylcarbamoyl-7-fluoro-2-hydroxy-7-methyl-octyl)-amide] |
| 840 | CNC(=O)[C@H](CC(C)C)C[C@H](O)[C@H](CC1CCCCC1)NC(=O)c1cnc2ccccc2c1 [Quinoline-3-carboxylic acid ((1S,2S,7R)-1-cyclohexylmethyl-2-hydroxy-6-methyl-4-methylcarbamoyl-heptyl)-amide] |
| 31 | CC(C)(F)CCC(C[C@H](O)[C@H](Cc1ccccc1)NC(=O)c1cnc2ccccc2n1)C(=O)NO (stereo partly drawn) [Quinoxaline-2-carboxylic acid ((1S,2S)-1-benzyl-7-fluoro-2-hydroxy-4-hydroxycarbamoyl-7-methyl-octyl)-amide] |
| 68 | NC(=O)C(C[C@H](O)[C@H](Cc1ccccc1)NC(=O)c1cnc2ccccc2n1)C1(O)CCC(F)(F)CC1 (stereo partly drawn) [Quinoxaline-2-carboxylic acid [(1S,2S)-1-benzyl-4-carbamoyl-4-(4,4-difluoro-1-hydroxy-cyclohexyl)-2-hydroxy-butyl]-amide] |
| 120 | NC(=O)C(C[C@H](O)[C@H](Cc1ccccc1)NC(=O)c1cnc2ccccc2n1)C1(O)CCCCC1 (stereo partly drawn) [Quinoxaline-2-carboxylic acid [(1S,2S)-1-benzyl-4-carbamoyl-2-hydroxy-4-(1-hydroxy-cyclohexyl)-butyl]-amide] |
| 8 | O=C(N[C@@H](Cc1ccccc1)[C@@H](O)CC(C(=O)NO)C1CCC(F)(F)CC1)c1cnc2ccccc2n1 (stereo partly drawn) [Quinoxaline-2-carboxylic acid [(1S,2S)-1-benzyl-4-(4,4-difluoro-cyclohexyl)-2-hydroxy-4-hydroxycarbamoyl-butyl]-amide] |
| 680 | CC(C)(O)CCC(C[C@H](O)[C@H](Cc1ccccc1F)NC(=O)c1cnc2ccccc2n1)C(N)=O (stereo partly drawn) [Quinoxaline-2-carboxylic acid [(1S,2S)-4-carbamoyl-1-(2-fluoro-benzyl)-2,7-dihydroxy-7-methyl-octyl]-amide] |
| 7050 | CN1CCN(C(=O)C(CCC(C)(C)F)C[C@H](O)[C@H](Cc2ccccc2)NC(=O)c2cnc3ccccc3n2)CC1 (stereo partly drawn) [Quinoxaline-2-carboxylic acid [(1S,2S)-1-benzyl-7-fluoro-2-hydroxy-7-methyl-4-(4-methyl-piperazine-1-carbonyl)-octyl]-amide] |
| 220 | NC(=O)C(C[C@H](O)[C@H](Cc1ccccc1)NC(=O)c1cnc2ccccc2n1)C1CCC(F)(F)CC1 (stereo partly drawn) [Quinoxaline-2-carboxylic acid [(1S,2S)-1-benzyl-4-carbamoyl-4-(4,4-difluoro-cyclohexyl)-2-hydroxy-butyl]-amide] |
| 13 | CC(C)(F)CC[C@H](C[C@H](O)[C@H](Cc1ccccc1)NC(=O)c1cnc2ccccc2n1)C(N)=O [Quinoxaline-2-carboxylic acid ((1S,2S,4R)-1-benzyl-4-carbamoyl-7-fluoro-2-hydroxy-7-methyl-octyl)-amide] |
| 2 | CC(C)CC[C@H](C[C@H](O)[C@H](Cc1ccccc1)NC(=O)c1cnc2ccccc2n1)C(N)=O [Quinoxaline-2-carboxylic acid ((1S,2S,4R)-1-benzyl-4-carbamoyl-2-hydroxy-7-methyl-octyl)-amide] |
| 1 | CC(C)(F)CCC(C[C@H](O)[C@H](Cc1ccccc1)NC(=O)c1cnc2ccccc2n1)C(=O)NN (stereo partly drawn) [Quinoxaline-2-carboxylic acid ((1S,2S)-1-benzyl-7-fluoro-4-hydrazinocarbonyl-2-hydroxy-7-methyl-octyl)-amide] |
